Legend:
PDGFR = molecular target: T1, PDGFR (Mus musculus, UniProt P05622); assay: Kinase inhibition assay (DELFIA), PDGF; format: biochemical; details: 40 μM ATP, kinase domain 20 nM
T1 construct: The kinase domains from FGFR-1, VEGFR-2, Lck, and PDGF were purified from baculoviral vectors expression systems and were used in the assays at 20 nM
Protocol: The inhibition activity of the compounds in Examples 8, 9, 10, 11, and 12 and Reference Compounds A and B were evaluated using the Dissociated Enhanced Lanthanide Fluoroimmuno Assay (DELFIA) (Frank Loganzo and Carolyn Hardy. A sensitive, time-resolved fluorometric assay for the detection of inhibitors of phosphotyrosine kinases. American Biotechnology Laboratory, December 1998). DELFIA plates (EG&G Wallac, Gaithersburg, Md.) were coated overnight with Poly Glu Tyr (4:1) (Sigma, St. Louis, Mo.) at room temperature, washed (DELFIA wash reagent, EG&G Wallac), and spotted with 1 μL inhibitor dilution or DMSO carrier control per well. In some cases, kinase was autophosphorylated prior to analysis by incubating 45 minutes at 4° C. in the presence of 4 mM ATP and 25 mM MgCl2. A typical 100 μL kinase assay reaction contained 20 mM Tris (pH 7.5), 20 mM MgCl2, 50 mM NaCl, 5 mM DTT, and protease inhibitors (Mini EDTA-free protease inhibitor cocktail tablets, Boehringer Mannheim, Indianapolis, Ind.), 40 μM ATP, and an appropriate concentration of inhibitor. The reaction was allowed to continue for 30 minutes at room temperature. […] One hundred microliter DELFIA enhancement solution (EG&G Wallac) was added and time-resolved fluorescence of the reactions determined using a VICTOR2 1420 multilable counter (EG&G Wallac). […]

Lck = molecular target: T2, Lck (Homo sapiens, UniProt P06239); assay: Kinase inhibition assay (DELFIA), Lck; format: biochemical; details: 40 μM ATP, kinase domain 20 nM
T2 construct: The kinase domains from FGFR-1, VEGFR-2, Lck, and PDGF were purified from baculoviral vectors expression systems; made in house
Protocol: The inhibition activity of the compounds in Examples 8, 9, 10, 11, and 12 and Reference Compounds A and B were evaluated using the Dissociated Enhanced Lanthanide Fluoroimmuno Assay (DELFIA) (Frank Loganzo and Carolyn Hardy. A sensitive, time-resolved fluorometric assay for the detection of inhibitors of phosphotyrosine kinases. American Biotechnology Laboratory, December 1998). DELFIA plates (EG&G Wallac, Gaithersburg, Md.) were coated overnight with Poly Glu Tyr (4:1) (Sigma, St. Louis, Mo.) at room temperature, washed (DELFIA wash reagent, EG&G Wallac), and spotted with 1 μL inhibitor dilution or DMSO carrier control per well. In some cases, kinase was autophosphorylated prior to analysis by incubating 45 minutes at 4° C. in the presence of 4 mM ATP and 25 mM MgCl2. A typical 100 μL kinase assay reaction contained 20 mM Tris (pH 7.5), 20 mM MgCl2, 50 mM NaCl, 5 mM DTT, and protease inhibitors (Mini EDTA-free protease inhibitor cocktail tablets, Boehringer Mannheim, Indianapolis, Ind.), 40 μM ATP, and an appropriate concentration of inhibitor. The reaction was allowed to continue for 30 minutes at room temperature. Plates were washed, blocked 30 minutes at room temperature (0.5% bovine serum albumin in DELFIA Assay Buffer, EG&G Wallac), and washed. One hundred microliter europium-conjugated antiphosphotyrosine antibody in DELFIA assay buffer was added to each well. Plates were incubated for 1 hour and decanted. One hundred microliter DELFIA enhancement solution (EG&G Wallac) was added and time-resolved fluorescence of the reactions determined using a VICTOR2 1420 multilable counter (EG&G Wallac). Compounds were tested from 10 through 0.0001 μM. c-Src was (Upstate Biotechnology, Lake Placid, N.Y.) was used at 3 units per reaction. The kinase domains from FGFR-1, VEGFR-2, Lck, and PDGF were purified from baculoviral vectors expression systems and were used in the assays at 20 nM.

[1] = Metabolic stability, mice liver S9 fraction; format: in vitro ADME; details: mice liver S9, 5 μM, 37° C., 1.0 mM NADPH
Protocol: Compounds were individually incubated (5 μM in DMSO) with human and mice liver S9 fractions in 50 mM KHPO4 buffer at 37° C. in the presence of 1.0 mM NADPH and additional cofactors. At 0, 10, 20, and 40 minutes, 100 μL aliquots were removed and added to 300 μL of acetonitrile. Standard curves were prepared in a similar manner with each compound. Samples were analyzed for parent concentration by LC-MS/MS. The in vitro metabolic half-life was determined from the concentration-time plots using WinNonlin. These in vitro data represent the rate of oxidative, hydrolytic, and conjugative metabolism.

[2] = tested on: VEGFR-2 and FGFR-1 compared to PDGFR, Lck, and c-Src; assay: Kinase selectivity comparison across the kinase inhibition assays; format: biochemical; details: compared with reference Compounds A and B
From the text: The invention compounds have been evaluated in the in vitro biological assays described in U.S. Pat. No. 5,733,914. […] Reference Compound A has a 2,6-dichloro phenyl group at the 6-position. Reference Compound B has a 3,5-dimethoxyphenyl group at the 6-position and a substituted phenylamino at the 2-position. The invention compound of Example 8 has the required 3,5-dimethoxyphenyl at the 6-position and the required (4-pyridyl)amino at the 2-position. The structures are shown in Table 1, along with their respective inhibitory activities against various tyrosine kinases, when evaluated in the models described in U.S. Pat. No. 5,733,914.
The preferred kinase selectivity profile of the compound in Example 8 is shared by the other representative compounds of the invention shown in Table 2. The inhibition activity of the compounds in Examples 8, 9, 10, 11, and 12 and Reference Compounds A and B were evaluated using the Dissociated Enhanced Lanthanide Fluoroimmuno Assay (DELFIA) (Frank Loganzo and Carolyn Hardy. A sensitive, time-resolved fluorometric assay for the detection of inhibitors of phosphotyrosine kinases. American Biotechnology Laboratory, December 1998). […] One hundred microliter DELFIA enhancement solution (EG&G Wallac) was added and time-resolved fluorescence of the reactions determined using a VICTOR2 1420 multilable counter (EG&G Wallac). […]

T2 sequence (P06239 245-498 limits assumed, species assumed): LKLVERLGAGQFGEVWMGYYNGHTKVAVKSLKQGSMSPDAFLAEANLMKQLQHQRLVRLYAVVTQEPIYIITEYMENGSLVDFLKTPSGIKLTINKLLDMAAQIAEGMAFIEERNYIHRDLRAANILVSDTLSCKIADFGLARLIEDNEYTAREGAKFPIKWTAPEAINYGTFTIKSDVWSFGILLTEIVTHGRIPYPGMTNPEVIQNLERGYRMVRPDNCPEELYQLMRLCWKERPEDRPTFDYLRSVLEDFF
T1 sequence (P05622 553-1098): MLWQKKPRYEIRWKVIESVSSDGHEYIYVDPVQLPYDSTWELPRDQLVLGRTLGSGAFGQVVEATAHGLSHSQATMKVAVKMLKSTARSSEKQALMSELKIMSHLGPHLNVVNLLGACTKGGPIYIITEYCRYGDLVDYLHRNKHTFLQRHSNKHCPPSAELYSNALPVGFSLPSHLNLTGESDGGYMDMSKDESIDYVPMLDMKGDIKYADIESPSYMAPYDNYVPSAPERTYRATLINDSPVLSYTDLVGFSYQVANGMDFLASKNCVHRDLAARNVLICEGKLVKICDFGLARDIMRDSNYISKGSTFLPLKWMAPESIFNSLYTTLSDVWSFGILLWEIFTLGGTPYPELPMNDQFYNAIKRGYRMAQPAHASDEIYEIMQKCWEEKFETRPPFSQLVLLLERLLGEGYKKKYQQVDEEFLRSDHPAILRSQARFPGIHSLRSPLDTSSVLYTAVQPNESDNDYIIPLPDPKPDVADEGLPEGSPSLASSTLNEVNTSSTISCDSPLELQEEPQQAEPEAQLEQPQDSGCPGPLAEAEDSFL

For “6-(3,5-Dimethoxy-phenyl)-8-ethyl-2-(pyridin-4-ylamino)-8H-pyrido[2,3-d]pyrimidin-7-one [Example 8]”, the IC50 (PDGFR) was 2.54 µM, the Ki (Lck) was 1.79 µM and the “MS9 in vitro metabolic half-life” value [1] was over 3.33 h. The “selectivity for VEGFR-2 and FGFR-1 compared to PDGFR, Lck, and c-Src” value [2] was “more selective”.
